Test results reported in patent US20130244999A1, “Substituted Heterocyclic Compounds” (Incyte Corporation, priority 2008, published 2013).

Molecular target: T1, histamine H4 receptor (Homo sapiens, UniProt Q9H3N8)
T1 construct: expressed in transfected cells; host or cells: HEK293SFM cells (membrane preparation)
Test: Inhibition of histamine H4 receptor (Table A1; H4 membrane binding assay)
Settings: for IC50: histamine H4 receptor, "> a" = exceeds experiment limit
Method: Recombinant HEK293SFM cells expressing human H1, H2, H3, H4 or mouse H4 were harvested (Packard Filtermate Harvester) in ice-cold Tris-HCl, (50 mM, pH 7.5, Sigma) with protease inhibitors (Roche) and homogenized with a Polytron homogenizer. The homogenate was centrifuged for 5 minutes at 1000 g to remove nuclei and unbroken cells. The supernatant was centrifuged at 50000 g for 30 minutes, and the resulting pellet was re-suspended in ice-cold Tris-HCl (50 mM, pH 7.5). […] Nonspecific binding was determined by inclusion of 1000× unlabeled ligands. The bound radioactivity was separated by filtration through polyethyleneimine-treated GF/B filters (Perkin Elmer). The filters were washed eight times with ice-cold Tris-HCl (50 mM, pH 7.5), and radioactivity retained on the filters was measured by liquid scintillation counting. The binding data were evaluated with Prism. […]

T1 sequence (Q9H3N8 whole entry): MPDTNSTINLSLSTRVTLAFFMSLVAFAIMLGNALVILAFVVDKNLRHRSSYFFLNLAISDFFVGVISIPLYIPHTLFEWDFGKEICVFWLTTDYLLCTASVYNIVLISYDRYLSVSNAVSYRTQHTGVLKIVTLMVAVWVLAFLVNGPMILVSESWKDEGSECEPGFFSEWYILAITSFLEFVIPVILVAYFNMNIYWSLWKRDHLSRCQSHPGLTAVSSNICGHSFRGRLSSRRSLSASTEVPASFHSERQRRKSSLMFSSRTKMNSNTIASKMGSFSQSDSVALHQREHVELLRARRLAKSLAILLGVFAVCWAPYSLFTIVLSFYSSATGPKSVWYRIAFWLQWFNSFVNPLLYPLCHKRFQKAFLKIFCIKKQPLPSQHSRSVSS

SMILES	IC50 [µM]	inhibition at 1 µM [%]
CC1Cc2ccc(-c3ccc(C(=O)N4CC(O)C4)cn3)cc2CN1c1cc(N2CCN(C)CC2)nc(N)n1 (single isomer, unassigned) [Example 73, 1-[(6-{2-[2-Amino-6-(4-methylpiperazin-1-yl)pyrimidin-4-yl]-3-methyl-1,2,3,4-tetrahydroisoquinolin-7-yl}pyridin-3-yl)carbonyl]azetidin-3-ol]	0.195	–
CC(C)NC(=O)N1CCC(c2ccc3c(c2)CN(c2cc(N4CCN(C)CC4)nc(N)n2)C(C)C3)CC1 (stereo not drawn) [Example 140, 4-{2-[2-Amino-6-(4-methylpiperazin-1-yl)pyrimidin-4-yl]-3-methyl-1,2,3,4-tetrahydroisoquinolin-7-yl}-N-isopropylpiperidine-1-carboxamide]	0.08	–
CC1Cc2ccc(-c3ccnc(C(=O)N[C@H](C)CO)c3)cc2CN1c1cc(N2CCN(C)CC2)nc(N)n1 (single isomer, unassigned) [Example 69]	0.066	–
CN1CCN(c2cc(N3CCc4ccc(-c5ccc(C(=O)N[C@H]6CC[C@H](O)CC6)nc5)cc4C3)nc(N)n2)CC1 [Example 20, 5-{2-[2-Amino-6-(4-methylpiperazin-1-yl)pyrimidin-4-yl]-1,2,3,4-tetrahydroisoquinolin-7-yl}-N-(trans-4-hydroxycyclohexyl)pyridine-2-carboxamide]	0.113	–
CN1CCN(c2cc(-c3ccc4c(c3)CN(c3cc(N5CCN(C)CC5)nc(N)n3)CC4)ccn2)CC1 [Example 5, 4-(4-Methylpiperazin-1-yl)-6-[7-[2-(4-methylpiperazin-1-yl)pyridin-4-yl]-3,4-dihydroisoquinolin-2(1H)-yl]pyrimidin-2-amine]	0.128	–
CC1Cc2ccc(-c3ccnc(C(=O)N4CC[C@H](F)C4)c3)cc2CN1c1cc(N2CCN(C)CC2)nc(N)n1 (single isomer, unassigned) [Example 66A]	0.064	–
CC1Cc2ccc(-c3ccn(C)n3)cc2CN1c1cc(N2CCN(C)CC2)nc(N)n1 (single isomer, unassigned) [Example 85B, 4-[3-Methyl-7-(1-methyl-1H-pyrazol-3-yl)-3,4-dihydroisoquinolin-2(1H)-yl]-6-(4-methylpiperazin-1-yl)pyrimidin-2-amine]	0.104	–
CC1Cc2ccc(-c3cc(C(=O)N(C)CCN(C)C)n(C)c3)cc2CN1c1cc(N2CCN(C)CC2)nc(N)n1 (single isomer, unassigned) [Example 93, 4-{2-[2-Amino-6-(4-methylpiperazin-1-yl)pyrimidin-4-yl]-3-methyl-1,2,3,4-tetrahydroisoquinolin-7-yl}-N-[2-(dimethylamino)ethyl]-N,1-dimethyl-1H-pyrrole-2-carboxamide]	0.024	–
CC1Cc2ccc(-c3cnn(CC4CCCO4)c3)cc2CN1c1cc(N2CCN(C)CC2)nc(N)n1 (single isomer, unassigned) [Example 99A, 4-(4-Methylpiperazin-1-yl)-6-[3-methyl-7-[1-(tetrahydrofuran-2-ylmethyl)-1H-pyrazol-4-yl]-3,4-dihydroisoquinolin-2(1H)-yl]pyrimidin-2-amine]	0.083	–
CN1CCN(c2cc(N3CCc4ccc(-c5cnn(C6CCN(C(=O)OC(C)(C)C)CC6)c5)cc4C3)nc(N)n2)CC1 [Example 12, tert-Butyl 4-(4-{2-[2-amino-6-(4-methylpiperazin-1-yl)pyrimidin-4-yl]-1,2,3,4-tetrahydroisoquinolin-7-yl}-1H-pyrazol-1-yl)piperidine-1-carboxylate]	0.489	–
CC1Cc2ccc(-c3ccc(C(=O)N4CCC4)nc3)cc2CN1c1cc(N2CCN(C)CC2)nc(N)n1 (single isomer, unassigned) [Example 53A, 4-[7-[6-(azetidin-1-ylcarbonyl)pyridin-3-yl]-3-methyl-3,4-dihydroLsoquinolin-2(1H)-yl]-6-(4-methylpiperazin-1-yl)pyrimidin-2-amine]	0.201	–
CN1CCN(c2cc(N3CCc4ccc(-c5cnn(C6(CC#N)CCCC6)c5)cc4C3)nc(N)n2)CC1 [Example 11, [1-(4-{2-[2-Amino-6-(4-methylpiperazin-1-yl)pyrimidin-4-yl]-1,2,3,4-tetrahydroisoquinolin-7-yl}-1,1-pyrazol-1-yl)cyclopentyl]acetonitrile]	0.11	–
CC(C)NC(=O)c1cc(-c2ccc3c(c2)CN(c2cc(N4CCN(C)CC4)nc(N)n2)C(C)C3)cn1C (single isomer, unassigned) [Example 90B, 4-{2-[2-Amino-6-(4-methylpiperazin-1-yl)pyrimidin-4-yl]-3-methyl-1,2,3,4-tetrahydroisoquinolin-7-yl}-N-isopropyl-1-methyl-1H-pyrrole-2-carboxamide]	–	72
CC1Cc2ccc(-c3ccc(C(=O)N4CCN(C)CC4)nc3)cc2CN1c1cc(N2CCN(C)CC2)nc(N)n1 (stereo not drawn) [Example 58, 4-[3-Methyl-7-{6-[(4-methylpiperazin-1-yl)carbonyl]pyridin-3-yl}-3,4-dihydroisoquinolin-2 (1H)-yl]-6-(4-methylpiperazin-1-yl)pyrimidin-2-amine]	0.144	–
CC1Cc2ccc(-c3cnn(C)c3)cc2CN1c1cc(N2CCCNCC2)nc(N)n1 (stereo not drawn) [Example 122, 4-(1,4-Diazepan-1-yl)-6-[3-methyl-7-(1-methyl-1H-pyrazol-4-yl)-3,4-dihydroisoquinolin-2(1H)-yl]pyrimidin-2-amine]	0.051	–
Cc1cccc(Nc2ccc3c(c2)CN(c2cc(N4CCN(C)CC4)nc(N)n2)CC3)n1 [Example 16, 2-[2-Amino-6-(4-methylpiperazin-1-yl)pyrimidin-4-yl]-N-(6-methylpyridin-2-yl)-1,2,3,4-tetrahydroisoquinolin-7-amine]	0.543	–
CNC(=O)c1ccc(C2CCN(c3ccc4c(c3)CN(c3cc(N5CCN(C)CC5)nc(N)n3)CC4)CC2)cc1 [Example 39, 4-(1-{2-[2-Amino-6-(4-methylpiperazin-1-yl)pyrimidin-4-yl]-1,2,3,4-tetrahydroisoquinolin-7-yl}piperidin-4-yl)-N-methylbenzamide]	0.051	–
CN1CCN(c2cc(N3CCc4ccc(Oc5ccccc5Cl)cc4C3)nc(N)n2)CC1 [Example 17, 4-[7-(2-Chlorophenoxy)-3,4-dihydroisoquinolin-2(1H)-yl]-6-(4-methylpiperazin-1-yl)pyrimidin-2-amine]	0.285	–
CC1Cc2ccc(-c3cnn(C)c3)cc2CN1c1cc(N2CCCC(N)C2)nc(N)n1 (stereo in doubt) [Example 119, 4-[(3S)-3-Aminopiperidin-1-yl]-6-[3-methyl-7-(1-methyl-1H-pyrazol-4-yl)-3,4-dihydroisoquinolin-2(1H)-yl]pyrimidin-2-amine]	0.091	–
CN1CCN(c2cc(N3CCc4ccc(-c5cnc(N6CCNCC6)nc5)cc4C3)nc(N)n2)CC1 [Example 9, 4-(4-Methylpiperazin-1-yl)-6-[7-(2-piperazin-1-yipyrimidin-5-yl)-3,4-dihydroisoquinolin-2(1H)-yl]pyrimidin-2-amine]	0.089	–
CC1Cc2ccc(-c3cc(C(=O)N(C)C)n(C)c3)cc2CN1c1cc(N2CCN(C)CC2)nc(N)n1 (single isomer, unassigned) [Example 89A, 4-{2-[2-Amino-6-(4-methylpiperazin-1-yl)pyrimidin-4-yl]-3-methyl-1,2,3,4-tetrahydroisoquinolin-7-yl}-N,1N,1-trimethyl-1H-pyrrole-2-carboxamide]	0.026	–
CC1Cc2ccc(-c3ccc(C(=O)N4CC(C#N)C4)nc3)cc2CN1c1cc(N2CCN(C)CC2)nc(N)n1 (single isomer, unassigned) [Example 54B, 1-[(5-{2-[2-amino-6-(4-methylpiperazin-1-yl)pyrimidin-4-yl]-3-methyl-1,2,3,4-tetrahydroisoquinolin-7-yl}pyridin-2-yl)carbonyl]azetidine-3-carbonitrile]	0.048	–
CC1Cc2ccc(-c3ccnc(C(=O)N4CCC(N(C)C)C4)c3)cc2CN1c1cc(N2CCN(C)CC2)nc(N)n1 (single isomer, unassigned) [Example 67A, 4-[7-(2-{[3-(dimethylamino)pyrrolidin-1-yl]carbonyl}pyridin-4-yl)-3-methyl-3,4-dihydroisoquinolin-2(1H)-yl]-6-(4-methylpiperazin-1-yl)pyrimidin-2-amine]	0.056	–
CC1Cc2ccc(-c3ccn(Cc4cccnc4)n3)cc2CN1c1cc(N2CCN(C)CC2)nc(N)n1 (single isomer, unassigned) [Example 156, 4-(4-Methylpiperazin-1-yl)-6-[3-methyl-7-[1-(pyridin-3-ylmethyl)-1H-pyrazol-3-yl]-3,4-dihydroisoquinolin-2(1H)-yl]pyrimidin-2-amine]	0.0087	–
CC1Cc2ccc(-c3cnn(CC4CCCC4)c3)cc2CN1c1cc(N2CCN(C)CC2)nc(N)n1 (single isomer, unassigned) [Example 109, 4-[7-[1-(Cyclopentylmethyl)-1H-pyrazol-4-yl]-3-methyl-3,4-dihydroisoquinolin-2(1H)-yl]-6-(4-methylpiperazin-1-yl)pyrimidin-2-amine]	0.1	–
CNC(=O)c1ccc(-c2ccc3c(c2)CN(c2cc(N4CCN(C)CC4)nc(N)n2)CC3)cn1 [Example 2, 5-{2-[2-Amino-6-(4-methylpiperazin-1-yl)pyrimidin-4-yl]-1,2,3,4-tetrahydroisaquinolin-7-yl}-N-methylpyridine-2-carboxamide]	0.02	–
CC1Cc2ccc(-c3cc(C(=O)N(C)C)n(C)c3)cc2CN1c1cc(N2CCN(C)CC2)nc(N)n1 (single isomer, unassigned) [Example 89B, 4-{2-[2-Amino-6-(4-methylpiperazin-1-yl)pyrimidin-4-yl]-3-methyl-1,2,3,4-tetrahydroisoquinolin-7-yl}-N,1N,1-trimethyl-1H-pyrrole-2-carboxamide]	–	67
